Counter-ions that a name gives are not always drawn.
Target: human RORγt LBD (Homo sapiens (Human), UniProt P51449)
Test: RORγt reporter assay (GAL4-RORγt LBD luciferase, HEK293T cells)
Format: cell-based
Conditions: for inhibition at 6 µM: HEK-293T, read-out: RORγt reporter Assay, % inhibition @ 6 μM, 6 μM, HEK293T cells
Description: A reporter assay was used to test functional activity of RORγt modulatory compounds on transcriptional activation driven by the RORγt LBD. Cells used in the assay were co-transfected with two constructs. The first construct, pBIND-RORγt LBD, contained the wild type human RORγt LBD fused to the DNA binding domain of the GAL4 protein. The second construct, pGL4.31 (Promega Cat no. C935A), contained multiple GAL4 responsive DNA elements upstream of firefly luciferase. […] The mutant construct was called pBIND-RORγt-AF2. […] The pBIND vector contains the GAL4 DNA Binding Domain (GAL4 DBD) and the renilla luciferase gene under control of the SV40 promoter. Renilla luciferase expression serves as a control for transfection efficiency and cell viability.
The reporter assay was performed by transiently transfecting HEK293T cells with 5 μg of pBIND-RORγt LBD or pBIND-RORγt LBD-AF2 and 5 μg pGL4.31 (Promega Cat no. C935A) using Fugene 6 (Invitrogen Cat no. E2691) at a 1:6 ratio of DNA: Fugene 6 in a T-75 flask in which cells were at least 80% confluent. Twenty four hours after bulk transfection, cells were plated into 96-well plates at 50,000 cells/well in phenol-red free DMEM containing 5% Lipid Reduced FCS and Pen/Strep. Six hours after plating, cells were treated with compounds for 24 hours. Media was removed and cells were lysed with 50 μL 1x Glo Lysis Buffer (Promega). Dual Glo Luciferase Reagent (50 μL/well) was then added and firefly luciferase luminescence was read on an Envision after a ten minute incubation. Finally, Stop and Glo reagent (50 μL/well) was added and renilla luciferase luminescence was read on an Envision after a ten minute incubation. To calculate the effect of compounds on RORγt activity, the ratio of firefly to renilla luciferase was determined and plotted against compound concentration. Agonist compounds increase RORγt-driven luciferase expression, and antagonist or inverse agonist compounds decrease luciferase expression.

human RORγt LBD, sequence (P51449 258-518): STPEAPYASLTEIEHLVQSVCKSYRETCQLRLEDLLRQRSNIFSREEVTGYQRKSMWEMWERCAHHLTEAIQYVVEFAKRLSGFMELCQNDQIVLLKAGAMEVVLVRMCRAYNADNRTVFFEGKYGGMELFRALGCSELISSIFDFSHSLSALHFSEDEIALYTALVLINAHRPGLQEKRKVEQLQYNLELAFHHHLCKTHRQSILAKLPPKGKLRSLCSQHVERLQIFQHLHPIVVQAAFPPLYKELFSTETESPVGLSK

| inhibition at 6 µM | SMILES | other results |
| --- | --- | --- |
| 86% | COc1nc2ccc(C(O)(c3ccc(Cl)cc3)c3cncn3C)cc2c(Cl)c1Oc1ccccc1 (single isomer, unassigned) [Example 15b, (4-Chloro-2-methoxy-3-phenoxyquinolin-6-yl)(4-chlorophenyl)(1-methyl-1H-imidazol-5-yl)methanol] | – |
| 55% | CCOc1nc2ccc(C(O)(c3ccc(C(F)(F)F)nc3)c3cncn3C)cc2c(Cl)c1Oc1ccc(F)cc1 (centres unmarked) [Example 14a, (4-Chloro-2-ethoxy-3-(4-fluorophenoxy)quinolin-6-yl)(1-methyl-1H-imidazol-5-yl)(6-(trifluoromethyl)pyridin-3-yl)methanol] | – |
| 83% | COc1nc2ccc(C(O)(c3ccc(Cl)cc3)c3cncn3C)cc2c(Cl)c1Oc1ccccc1 (centres unmarked) [Example 15a, (4-Chloro-2-methoxy-3-phenoxyquinolin-6-yl)(4-chlorophenyl)(1-methyl-1H-imidazol-5-yl)methanol] | – |
| 55% | Cn1cncc1C(O)(c1ccc(C(F)(F)F)nc1)c1ccc2nc(C#N)c(Oc3ccccc3)c(C#N)c2c1 (centres unmarked) [Example 22a, 6-(Hydroxy(1-methyl-1H-imidazol-5-yl)(6-(trifluoromethyl)pyridin-3-yl)methyl)-3-phenoxyquinoline-2,4-dicarbonitrile] | IC50 (HEK293T cells, 24 hours compound treatment): ~6 µM |
| 75% | CCOc1nc2ccc(C(O)(c3ccc(C(F)(F)F)nc3)c3cncn3C)cc2c(C(F)(F)F)c1Oc1ccc(Cl)cc1 (centres unmarked) [Example 25a, (3-(4-Chlorophenoxy)-2-ethoxy-4-(trifluoromethyl)quinolin-6-yl)(1-methyl-1H-imidazol-5-yl)(6-(trifluoromethyl)pyridin-3-yl)methanol] | – |
| 102% | Cn1cncc1C(O)(c1ccc(Cl)cc1)c1ccc2nc(N3CCC3)c(Oc3ccc(C#N)cc3)c(Cl)c2c1 (centres unmarked) [Example 32a, 4-((2-(Azetidin-1-yl)-4-chloro-6-((4-chlorophenyl)(hydroxyl)(1-methyl-1H-imidazol-5-yl)methyl)quinolin-3-yl)oxy)benzonitrile] | – |

Further lines, the compound ahead of its results:

| SMILES | inhibition at 6 µM | other results |
| --- | --- | --- |
| CCN(CC)c1nc2ccc(C(O)(c3ccc(Cl)cc3)c3cncn3C)cc2c(Cl)c1Oc1ccccc1 (single isomer, unassigned) [Example 3b, (4-Chloro-2-(diethylamino)-3-phenoxyquinolin-6-yl)(4-chlorophenyl)(1-methyl-1H-imidazol-5-yl)methanol] | – | RORγt reporter Assay, % inhibition @ 6 μM (HEK293T cells): 77% |
| CCOc1nc2ccc(C(O)(c3ccc(C(F)(F)F)nc3)c3cncn3C)cc2c(Cl)c1Oc1ccc(F)cc1 (single isomer, unassigned) [Example 14b, (4-Chloro-2-ethoxy-3-(4-fluorophenoxy)quinolin-6-yl)(1-methyl-1H-imidazol-5-yl)(6-(trifluoromethyl)pyridin-3-yl)methanol] | – | RORγt reporter Assay, % inhibition @ 6 μM (HEK293T cells): 69% |
| CCOc1nc2ccc(C(O)(c3ccc(C(F)(F)F)nc3)c3cncn3C)cc2c(Cl)c1Oc1ccc(F)cc1 (single isomer, unassigned) [Example 14c, (4-Chloro-2-ethoxy-3-(4-fluorophenoxy)quinolin-6-yl)(1-methyl-1H-imidazol-5-yl)(6-(trifluoromethyl)pyridin-3-yl)methanol] | – | RORγt reporter Assay, % inhibition @ 6 μM (HEK293T cells): 18% |
| COc1nc2ccc(C(O)(c3ccc(Cl)cc3)c3cncn3C)cc2c(Cl)c1Oc1ccccc1 (single isomer, unassigned) [Example 15c, (4-Chloro-2-methoxy-3-phenoxyquinolin-6-yl)(4-chlorophenyl)(1-methyl-1H-imidazol-5-yl)methanol] | – | RORγt reporter Assay, % inhibition @ 6 μM (HEK293T cells): 82% |
| CCOc1nc2ccc(C(O)(c3ccc(C(F)(F)F)nc3)c3cncn3C)cc2c(C(F)(F)F)c1Oc1ccc(Cl)cc1 (single isomer, unassigned) [Example 25c, (3-(4-Chlorophenoxy)-2-ethoxy-4-(trifluoromethyl)quinolin-6-yl)(1-methyl-1H-imidazol-5-yl)(6-(trifluoromethyl)pyridin-3-yl)methanol] | – | RORγt reporter Assay, % inhibition @ 6 μM (HEK293T cells): 67% |
| COc1ccc(C(O)(c2ccc3nc(Cl)c(Oc4ccccc4)c(Cl)c3c2)c2cncn2C)cn1 (centres unmarked) [Example 4, (2,4-Dichloro-3-phenoxyquinolin-6-yl)(6-methoxypyridin-3-yl)(1-methyl-1H-imidazol-5-yl)methanol] | 92% | – |
| CCN(CC)c1nc2ccc(C(O)(c3ccc(C(F)(F)F)nc3)c3cncn3C)cc2c(Cl)c1Oc1ccc(F)cc1 (centres unmarked) [Example 9a] | 97% | – |
| CCOc1nc2ccc(C(O)(c3ccc(OC)nc3)c3cncn3C)cc2c(Cl)c1Oc1ccccc1 (centres unmarked) [Example 10a, (4-Chloro-2-ethoxy-3-phenoxyquinolin-6-yl)(6-methoxypyridin-3-yl)(1-methyl-1H-imidazol-5-yl)methanol.TFA] | 95% | – |
| COc1c(Oc2ccccc2)c(Cl)nc2ccc(C(O)(c3ccc(Cl)cc3)c3cncn3C)cc12 (centres unmarked) [Example 18, (2-Chloro-4-methoxy-3-phenoxyquinolin-6-yl)(4-chlorophenyl)(1-methyl-1H-imidazol-5-yl)methanol] | 88% | – |
| Cn1cncc1C(O)(c1ccc(C(F)(F)F)nc1)c1ccc2nc(C#N)c(Oc3ccccc3)c(Cl)c2c1 (centres unmarked) [Example 21, 4-Chloro-6-(hydroxy(1-methyl-1H-imidazol-5-yl)(6-(trifluoromethyl)pyridin-3-yl)methyl)-3-phenoxyquinoline-2-carbonitrile.TFA] | 80% | – |
| Cn1cncc1C(O)(c1ccc(Cl)cc1)c1ccc2nc(C#N)c(Oc3ccc(F)cc3)c(Cl)c2c1 (centres unmarked) [Example 23, 4-Chloro-6-((4-chlorophenyl)(hydroxy)(1-methyl-1H-imidazol-5-yl)methyl)-3-(4-fluorophenoxy)quinoline-2-carbonitrile.TFA] | 80% | – |
| Cn1cncc1C(O)(c1ccc(C(F)(F)F)nc1)c1ccc2nc(C#N)c(Oc3ccc(Cl)cc3)c(C(F)(F)F)c2c1 (centres unmarked) [Example 24, 3-(4-Chlorophenoxy)-6-(hydroxy(1-methyl-1H-imidazol-5-yl)(6-(trifluoromethyl)pyridin-3-yl)methyl)-4-(trifluoromethyl)quinoline-2-carbonitrile] | 55% | – |
| CCN(CC)c1nc2ccc(C(O)(c3ccc(Cl)cc3)c3cncn3C)cc2c(C(F)(F)F)c1Oc1ccccc1 (centres unmarked) [Example 29, (4-Chlorophenyl)(2-(diethylamino)-3-phenoxy-4-(trifluoromethyl)quinolin-6-yl)(1-methyl-1H-imidazol-5-yl)methanol.TFA] | 93% | – |
| COCCN(C)c1nc2ccc(C(O)(c3ccc(C(F)(F)F)nc3)c3cncn3C)cc2c(Cl)c1Oc1ccccc1 (centres unmarked) [Example 34, (4-Chloro-2-((2-methoxyethyl)(methyl)amino)-3-phenxoyquinolin-6-yl)(1-methyl-1H-imidazol-5-yl)(6-(trifluoromethyl)pyridin-3-yl)methanol.TFA] | 95% | – |
| CCN(CC)c1nc2ccc(C(O)(c3ccc(Cl)cc3)c3cncn3C)cc2c(Cl)c1N(C(=O)OC(C)(C)C)c1ccccc1 (centres unmarked) [Example 44, tert-Butyl (4-chloro-6-((4-chlorophenyl)(hydroxyl)(1-methyl-1H-imidazol-5-yl)methyl)-2-(diethylamino)quinolin-3-yl)(phenyl)carbamate.TFA] | 62% | – |
| Cn1cncc1C(O)(c1ccc(C(F)(F)F)nc1)c1ccc2nc(Cl)c(Oc3ccc(Cl)cc3)c(C(F)(F)F)c2c1 (centres unmarked) [Example 46, (2-Chloro-3-(4-chlorophenoxy)-4-(trifluoromethyl)quinolin-6-yl)(1-methyl-1H-imidazol-5-yl)(6-(trifluoromethyl)pyridin-3-yl)methanol] | 39% | – |
